Counter-ions that a name gives are not always drawn. Like-named read-outs stand apart in the source and are kept apart here.
What was measured:
[1] = target: T1, recombinant full-length WRN protein (1-1432) (Homo sapiens, UniProt Q14191); test: WRN unwinding activity, fluorogenic 384-well assay (Example A); format: biochemical; conditions: WRN unwinding activity, 4 hr; Table 2; read-out: 4 hr UNW pIC50 (converted)
T1 construct: recombinant full-length WRN protein (1-1432)
Summary of the method: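 200 pM enzyme (2× stock) preincubated with compound 4 h at ambient temperature, then 200 μM ATP and 12 nM quenched TAMRA-labelled dsDNA (2× stocks) added for 60 min; EDTA-quenched. Buffer 25 mM Tris pH 8.0, 5 mM NaCl, 2 mM MgCl2. Fluorescence at 525/598 nm; pIC50 from four-parameter fit.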

[2] = Cell culture media unbound percentage and stability by rapid equilibrium dialysis (Example C); format: in vitro ADME; conditions: bovine, cell assay medium (RPMI-1640 with 10% fetal bovine serum), pH 7.4, rapid equilibrium dialysis, 4 hours at 37° C., read-out: Cell Culture Media Binding (% unbound)
Summary of the method: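 Compound spiked into cell culture medium at nominal 1 μM and dialysed against PBS (100 mM sodium phosphate + 150 mM NaCl, pH 7.4) by rapid equilibrium dialysis, triplicate, 4 h at 37° C with shaking. LC-MS/MS peak area ratios gave percent unbound (receiver/donor) and percent stability (240 min vs 0 min).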

[3] = system: SW48 human colorectal cancer cells; test: Calculated free drug potency in SW48 cell assay, corrected with media free fraction (Example C); format: cell-based; conditions: Homo sapiens, SW48, SW48 pCC50 corrected with measured free fraction in cell assay media
Summary of the method: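 Compound spiked at nominal 1 μM into cell assay medium and dialysed against PBS (100 mM sodium phosphate, 150 mM NaCl, pH 7.4) by rapid equilibrium dialysis, 4 h, 37 °C, shaking. Percent unbound from LC-MS/MS peak area ratios (240 min vs 0 min); cell assay concentrations corrected by this free fraction.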

[4] = system: SW48 human colorectal cancer cells (MSI-H cancer cells); test: SW48 cell viability, CellTiter-Glo, 120 hours (Example B); conditions: for CC50: Homo sapiens
Method: SW48 human colorectal cancer cells (MSI-H cancer cells) were obtained from the American Type Culture Collection and maintained in growth medium composed of RPMI-1640 supplemented with 10% fetal bovine serum. Cells were maintained in a humidified 5% CO2 incubator at 37° C. Cell dissociation was conducted using TrypLE Select to detach cells from culture flasks. Following dissociation, cells were centrifuged briefly and resuspended in assay medium RPMI-1640+10% fetal bovine serum. Black 384-well assay plates were prepared from source plates of DMSO and compounds dissolved in DMSO prior to cell dispensation. These source plates were prepared in eleven point, 3-fold serial dilutions from 10 mM stocks stored at 4° C. Compounds and DMSO controls were dispensed into assay plates at 150 nanoliters per well from source plates using Labcyte Echo 555 or Echo 655T dispensers with Column 6 and Column 18 containing DMSO only. Cells were then seeded into prepared assay plates in 50 microliters assay medium at 250 cells per well into Columns 1 thru 17 and Columns 19-24. Assay medium without cells was added to column 18 to serve as a surrogate for 100% cell cytotoxicity. Following incubation for 120 hours in a humidified 5% CO2 incubator at 37° C., cellular ATP concentration of each well was measured and used as a surrogate of cell viability. This was performed by adding 50 microliters of CellTiter-Glo reagent to each well followed by a 10-minute incubation at room temperature. Luminescence was measured on a Synergy Neo or Synergy Neo2 multimode plate reader. Compound cytotoxic response (% C) was normalized to the robust means of column 6 (Control 1, 0% Cytotoxicity) and column 18 (Control 2, 100% Cytotoxicity) and normalized % cytotoxicity (% C) calculated. % C=100−100*((Compound−Control 2)/(Control1−Control2)). These normalized data were then used to determine a 50% cytotoxic response (CC50) using 4-parameter logistic curve model 201 in Activity Base XE:
[formula] • where A=minimum asymptote (% cytotoxicity), B=maximum asymptote (% cytotoxicity), C=Log CC50 (pCC50), D=Hill slope, and x=[inhibitor], (M).

[5] = SW48, 120 h, read-out: SW48 pCC50, SW48 cell viability, 120 hours incubation (converted), Table 2
[6] = SW48, read-out: SW48 pCC50, measured potency from Example B, as repeated in Table 3 (converted)

T1 sequence (Q14191 whole entry): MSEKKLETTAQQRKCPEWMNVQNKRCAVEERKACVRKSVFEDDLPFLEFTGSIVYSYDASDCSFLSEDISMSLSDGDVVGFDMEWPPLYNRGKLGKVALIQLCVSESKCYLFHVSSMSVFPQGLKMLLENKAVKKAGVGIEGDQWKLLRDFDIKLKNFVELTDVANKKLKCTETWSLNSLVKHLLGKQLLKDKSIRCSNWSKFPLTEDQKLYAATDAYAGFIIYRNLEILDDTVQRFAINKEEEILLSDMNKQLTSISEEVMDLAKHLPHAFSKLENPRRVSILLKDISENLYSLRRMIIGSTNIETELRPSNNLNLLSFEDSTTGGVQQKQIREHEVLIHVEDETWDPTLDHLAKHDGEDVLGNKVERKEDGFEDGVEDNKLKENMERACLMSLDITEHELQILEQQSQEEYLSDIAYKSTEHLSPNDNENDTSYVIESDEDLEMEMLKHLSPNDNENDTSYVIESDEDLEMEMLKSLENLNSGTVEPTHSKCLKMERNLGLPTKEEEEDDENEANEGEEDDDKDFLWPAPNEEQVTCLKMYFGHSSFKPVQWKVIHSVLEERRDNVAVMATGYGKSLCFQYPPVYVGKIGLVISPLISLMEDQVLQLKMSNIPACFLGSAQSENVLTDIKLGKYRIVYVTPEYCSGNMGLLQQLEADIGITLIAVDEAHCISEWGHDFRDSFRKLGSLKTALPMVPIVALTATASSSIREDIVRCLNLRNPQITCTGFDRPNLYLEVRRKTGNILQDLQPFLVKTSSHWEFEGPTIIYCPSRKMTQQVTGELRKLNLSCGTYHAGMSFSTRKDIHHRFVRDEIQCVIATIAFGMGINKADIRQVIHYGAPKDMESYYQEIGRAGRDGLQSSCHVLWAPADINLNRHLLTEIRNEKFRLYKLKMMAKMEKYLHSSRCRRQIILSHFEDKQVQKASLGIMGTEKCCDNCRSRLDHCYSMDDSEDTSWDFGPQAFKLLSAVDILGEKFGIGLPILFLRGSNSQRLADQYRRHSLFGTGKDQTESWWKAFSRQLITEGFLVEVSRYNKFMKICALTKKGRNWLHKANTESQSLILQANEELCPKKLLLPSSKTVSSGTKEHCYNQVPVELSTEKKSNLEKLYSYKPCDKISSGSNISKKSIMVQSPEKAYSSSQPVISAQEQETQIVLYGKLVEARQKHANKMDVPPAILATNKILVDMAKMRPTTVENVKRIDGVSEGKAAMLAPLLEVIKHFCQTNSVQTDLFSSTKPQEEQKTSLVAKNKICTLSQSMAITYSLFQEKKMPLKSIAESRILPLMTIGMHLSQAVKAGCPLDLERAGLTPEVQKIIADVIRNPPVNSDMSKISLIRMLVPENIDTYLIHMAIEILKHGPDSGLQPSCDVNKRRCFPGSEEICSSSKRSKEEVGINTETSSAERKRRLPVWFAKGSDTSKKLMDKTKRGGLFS

Structure (SMILES) | IC50 [1] [nM] | fraction unbound at 4 h, 1 µM [2] | CC50 [3] [nM] | CC50 [4, 5] [nM] | CC50 [4, 6] [nM] | SW48 pCC50 ([4]; SW48 cell viability, 120 hours incubation, Table 2)
O=C(O)[C@@H]1[C@@H](c2ccc(-c3cnsc3)cc2)CCC[C@H]1C(=O)Nc1ccc(C(F)(F)F)cc1F [Example 16, (1R,2R,6S)-2-((2-fluoro-4-(trifluoromethyl)phenyl)carbamoyl)-6-(4-(isothiazol-4-yl)phenyl)cyclohexane-1-carboxylic acid] | 3.98 | 0.0499 | 200 | 3980 | 3980 | 
Cc1nc2cc(S(=O)(=O)N(C)c3ccc([C@@H]4CCC[C@H](COc5ccc(C(F)(F)F)cc5)[C@H]4C(=O)O)cc3)cc([C@@H]3CCCNC3)c2n1C (relative stereo) [Example 207, rel-(1R,2R,6S)-2-((4-(trifluoromethyl)phenoxy)methyl)-6-(4-((N,1,2-trimethyl-7-((R)-piperidin-3-yl)-1H-benzo[d]imidazole)-5-sulfonamido)phenyl)cyclohexane-1-carboxylic acid, hydrochloride] | 1.58 | 0.0138 | 110 | 7940 | 7940 | 
CN(c1ccc([C@H]2CCC[C@@H](C(=O)Nc3ccc(C(F)(F)F)cc3F)[C@@H]2C(=O)O)cc1)S(=O)(=O)c1ccc2scnc2c1 [Example 101, (1R,2R,6S)-2-((2-fluoro-4-(trifluoromethyl)phenyl)carbamoyl)-6-(4-(N-methylbenzo[d]thiazole-5-sulfonamido)phenyl)cyclohexane-1-carboxylic acid] | 5.01 | 0.0349 | 43.7 | 1260 | 1260 | 
CN[C@@H]1C[C@H](c2ccc(N(C)S(=O)(=O)c3ccc4c(c3)nc(C)n4C)cc2)[C@@H](C(=O)O)[C@H](C(=O)Nc2ccc(C(F)(F)F)cc2F)C1 (single isomer, unassigned) [Example 256] | 1.26 | 0.284 | 1780 | 6310 | 6310 | 
Cc1nc2cc(S(=O)(=O)Nc3ccc([C@@H]4CCC[C@H](C(=O)Nc5ccc(C(F)(F)F)cc5F)[C@H]4C(=O)O)cc3)ccc2n1C (single isomer, unassigned) [Example 224] | 1.26 | 0.0355 | 17.8 | 501 | 501 | 
CN(c1ccc([C@H]2CCC[C@@H](C(=O)Nc3ccc(C(F)(F)F)cc3F)[C@@H]2C(=O)O)cc1)S(=O)(=O)c1ccc2c(c1)nc(CO)n2C [Example 372, (1R,2R,6S)-2-((2-fluoro-4-(trifluoromethyl)phenyl)carbamoyl)-6-(4-((2-(hydroxymethyl)-N,1-dimethyl-1H-benzo[d]imidazole)-5-sulfonamido)phenyl)cyclohexane-1-carboxylic acid] | 1.58 | 0.208 | 41.7 | 200 | 200 | 
CN(c1ccc([C@H]2CCC[C@@H](C(=O)Nc3ccc(C(F)(F)F)cc3F)[C@@H]2C(=O)O)cc1)S(=O)(=O)c1cc(I)c2occc2c1 [Example 94, (1R,2R,6S)-2-((2-fluoro-4-(trifluoromethyl)phenyl)carbamoyl)-6-(4-((7-iodo-N-methylbenzofuran)-5-sulfonamido)phenyl)cyclohexane-1-carboxylic acid] | 50.1 | 0.0014 | 5.62 |  | 3980 | 5.4
Cc1nc2cc(S(=O)(=O)N(C)c3ccc([C@H]4C[C@@H](OC[C@H]5CCOC5)C[C@@H](C(=O)Nc5ccc(C(F)(F)F)cc5F)[C@@H]4C(=O)O)cc3)ccc2n1C (stereo in doubt) [Example 317, (1R*,2R*,4R*,6S*)-2-((2-fluoro-4-(trifluoromethyl)phenyl)carbamoyl)-4-(((S)-tetrahydrofuran-3-yl)methoxy)-6-(4-((N,1,2-trimethyl-1H-benzo[d]imidazole)-5-sulfonamido)phenyl)cyclohexane-1-carboxylic acid] | 1.58 | 0.15 | 12 | 79.4 | 79.4 | 
Cc1nc2cc(S(=O)(=O)N(C)c3ccc([C@@H]4C[C@H](N5CC6(F)CC5C6)C[C@H](C(=O)Nc5ccc(C(F)(F)F)cc5F)[C@H]4C(=O)O)cc3)ccc2n1C (relative stereo) [Example 397, rel-(1R,2R,4R,6S)-2-((2-fluoro-4-(trifluoromethyl)phenyl)carbamoyl)-4-(4-fluoro-2-azabicyclo[2.1.1]hexan-2-yl)-6-(4-((N,1,2-trimethyl-1H-benzo[d]imidazole)-5-sulfonamido)phenyl)cyclohexane-1-carboxylic acid] | 1.58 | 0.0527 | 16.6 | 316 | 316 | 
CC(=O)N1C[C@H](c2ccc(N(C)S(=O)(=O)c3ccc4c(c3)nc(C)n4C)cc2)[C@@H](C(=O)O)[C@H](C(=O)Nc2ccc(C(F)(F)F)cc2F)C1 (stereo in doubt) [Example 310, rel-(3R,4S,5R)-1-acetyl-3-((2-fluoro-4-(trifluoromethyl)phenyl)carbamoyl)-5-(4-((N,1,2-trimethyl-1H-benzo[d]imidazole)-5-sulfonamido)phenyl)piperidine-4-carboxylic acid] | 1.58 | 0.273 | 437 | 1580 | 1580 | 
Cc1nc2cc(S(=O)(=O)N(C)c3ccc([C@H]4CCC[C@@H](C(=O)Nc5ccc(C(F)(F)F)cc5F)[C@@H]4C(=O)O)cc3)cc([C@H]3CCCNC3)c2n1C (relative stereo) [Example 269, (1R,2R,6S)-2-((2-fluoro-4-(trifluoromethyl)phenyl)carbamoyl)-6-(4-((N,1,2-trimethyl-7-((R*)-piperidin-3-yl)-1H-benzo[d]imidazole)-5-sulfonamido)phenyl)cyclohexane-1-carboxylic acid hydrochloride] | 0.794 | 0.257 | 646 | 2510 | 2510 | 
Cc1nc2cc(S(=O)(=O)N(C)c3ccc([C@H]4C[C@@H](OCC5CC5)C[C@@H](C(=O)Nc5ccc(C(F)(F)F)cc5F)[C@@H]4C(=O)O)cc3)ccc2n1C (stereo in doubt) [Example 314, rel-(1R,2R,4R,6S)-4-(cyclopropylmethoxy)-2-((2-fluoro-4-(trifluoromethyl)phenyl)carbamoyl)-6-(4-((N,1,2-trimethyl-1H-benzo[d]imidazole)-5-sulfonamido)phenyl)cyclohexane-1-carboxylic acid] | 1.58 | 0.0795 | 12.6 | 158 | 158 | 
Cc1nc2cc(S(=O)(=O)N(C)c3ccc([C@@H]4CCC[C@H](COc5ccc(C(F)(F)F)cc5)[C@H]4C(=O)O)cc3)cc([C@H]3CCCN(C)C3)c2n1C (single isomer, unassigned) [Example 212] | 1.58 | 0.0205 | 40.7 | 2000 | 2000 | 
Cc1nc2cc(S(=O)(=O)N(C)c3ccc([C@H]4CCC[C@@H](C(=O)Nc5ccc(C(F)(F)F)cc5F)[C@@H]4C(=O)O)cc3)ccc2n1CCN(C)C [Example 278, (1R,2S,6R)-2-(4-((1-(2-(dimethylamino)ethyl)-N,2-dimethyl-1H-benzo[d]imidazole)-5-sulfonamido)phenyl)-6-((2-fluoro-4-(trifluoromethyl)phenyl)carbamoyl)cyclohexane-1-carboxylic acid] | 0.631 | 0.208 | 26.3 | 126 | 126 | 
Cc1nc2cc(S(=O)(=O)N(C)c3ccc([C@H]4CCC[C@@H](C(=O)Nc5ccc(C(F)(F)F)cc5F)[C@@H]4C(=O)O)cc3)cc(CCN(C)C)c2n1C [Example 290, (1R,2S,6R)-2-(4-((7-(2-(dimethylamino)ethyl)-N,1,2-trimethyl-1H-benzo[d]imidazole)-5-sulfonamido)phenyl)-6-((2-fluoro-4-(trifluoromethyl)phenyl)carbamoyl)cyclohexane-1-carboxylic acid] | 1.58 | 0.411 | 162 | 398 | 398 | 
CN(c1ccc([C@H]2CCC[C@@H](C(=O)Nc3ccc(C(F)(F)F)cc3F)[C@@H]2C(=O)O)cc1)S(=O)(=O)c1ccc2c(c1)nc(CCN)n2C [Example 267, (1R,2S,6R)-2-(4-((2-(2-aminoethyl)-N,1-dimethyl-1H-benzo[d]imidazole)-5-sulfonamido)phenyl)-6-((2-fluoro-4-(trifluoromethyl)phenyl)carbamoyl)cyclohexane-1-carboxylic acid hydrochloride] | 1 | 0.226 | 178 | 794 | 794 | 

Reference: patent US12662451B2, “Chemical compounds and uses thereof” (GLAXOSMITHKLINE INTELLECTUAL PROPERTY (NO.4) LIMITED, priority 2023, dated 2026)
